In patent publication US20240262832A1, “SMALL MOLECULE MODULATORS OF GLUCOCEREBROSIDASE ACTIVITY AND USES THEREOF” (Vanqua Bio, Inc., priority 2021, published 2024):

Biological target: T1, GCase (Homo sapiens, UniProt P04062)
T1 construct: endogenous in cells; host or cells: HeLa cells
T1 sequence (P04062 40-536): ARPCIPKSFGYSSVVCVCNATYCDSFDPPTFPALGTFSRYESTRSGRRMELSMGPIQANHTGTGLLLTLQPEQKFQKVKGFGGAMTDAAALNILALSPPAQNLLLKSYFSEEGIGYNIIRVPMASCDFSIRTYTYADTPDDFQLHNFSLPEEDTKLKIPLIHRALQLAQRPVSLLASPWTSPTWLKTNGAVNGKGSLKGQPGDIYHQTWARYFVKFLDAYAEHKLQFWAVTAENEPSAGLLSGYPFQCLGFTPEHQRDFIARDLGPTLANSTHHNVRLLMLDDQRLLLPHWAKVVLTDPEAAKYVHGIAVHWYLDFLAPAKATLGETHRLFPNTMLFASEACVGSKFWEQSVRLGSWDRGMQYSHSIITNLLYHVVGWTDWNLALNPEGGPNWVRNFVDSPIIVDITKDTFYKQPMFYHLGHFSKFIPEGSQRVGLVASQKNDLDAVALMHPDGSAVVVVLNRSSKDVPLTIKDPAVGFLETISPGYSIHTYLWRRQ
Assay: activation of GCase in a live cell PFB assay in HELA cells
Format: cell-based

SMILES | EC50
Cc1ccccc1OCC1CCCN(C(=O)c2cnn3c(-c4ccccc4)ccc(Cl)c23)C1 (stereo not drawn) [Compound 25, (4-Chloro-7-phenylpyrazolo[1,5-a]pyridin-3-yl)(3-((o-tolyloxy)methyl)piperidin-1-yl)methanone] | 10 to 50 µM
NCCn1cc(C(=O)N2CCC(COc3ccc4c(c3)CCC4)CC2)nn1 [Compound 440] | > 100 µM
CC1C(COc2cccnc2C(F)(F)F)CCCN1c1cnc2cnn(CC(F)F)c2n1 (stereo not drawn) [Compound 116, 1-(2,2-Difluoroethyl)-6-(2-methyl-3-(((2-(trifluoromethyl)pyridin-3-yl)oxy)methyl)piperidin-1-yl)-1H-pyrazolo[3,4-b]pyrazine] | < 10 µM
C[C@H]1C[C@@H](COc2cccnc2C(F)(F)F)CN(c2cnc3cnn(CC(F)F)c3n2)C1 [Compound 93, 1-(2,2-Difluoroethyl)-6-((3S,5R)-3-methyl-5-(((2-(trifluoromethyl)pyridin-3-yl)oxy)methyl)piperidin-1-yl)-1H-pyrazolo[3,4-b]pyrazine] | < 10 µM
FC(F)Cn1ncc2ncc(N3CCC(COc4cccc(C(F)(F)F)n4)CC3)nc21 [Compound 328, 2-({1-[1-(2,2-Difluoroethyl)-1H-pyrazolo[3,4-b]pyrazin-6-yl]piperidin-4-yl}methoxy)-6-(trifluoromethyl)pyridine] | 10 to 50 µM
CSCc1ccc(C(=O)N2CCC(OCc3ccccc3)CC2)o1 [Compound 435] | > 100 µM
COc1ccc(OCC2CCN(C(=O)CN3C(=O)CCC3C)CC2)cc1 (stereo not drawn) [Compound 483] | 50 to 100 µM
COc1ccc(OCC2CCN(C(=O)NCCc3nccs3)CC2)cc1 [Compound 480] | > 100 µM
FC(F)Cn1ncc2ncc(N3CCCC(COc4nccnc4Cl)C3)nc21 (stereo not drawn) [Compound 69, 6-(3-(((3-Chloropyrazin-2-yl)oxy)methyl)piperidin-1-yl)-1-(2,2-difluoroethyl)-1H-pyrazolo[3,4-b]pyrazine] | > 100 µM
O=C(c1ccc2c(c1)CCCC2)N1CCC(Oc2ccccc2)CC1 [Compound 407, 4-Phenoxy-1-(5,6,7,8-tetrahydronaphthalene-2-carbonyl)piperidine] | 10 to 50 µM
O=C(c1ccc(F)c(OC(F)(F)F)c1)N1CCCC(COc2ccccc2)C1 (stereo not drawn) [Compound 217] | 10 to 50 µM
COc1ccc(OCC2CCN(Cc3noc(C4CCCO4)n3)CC2)cc1 (stereo not drawn) [Compound 471] | 50 to 100 µM
Cc1nccn1CCCC(=O)N1CCC(OCc2ccccc2)CC1 [Compound 451] | > 100 µM
COc1ccc(OCC2CCN(Cc3cc(C)no3)CC2)cc1 [Compound 425] | > 100 µM
COc1ccc(OCC2CCN(Cc3c[nH]c(C#N)c3)CC2)cc1 [Compound 456] | < 10 µM
COc1ccc(OCC2CCN(c3nncc(C)c3C)CC2)cc1 [Compound 430] | 50 to 100 µM
CC1CCC(COc2cccnc2C(F)(F)F)CN1c1cnc2cnn(CC(F)(F)F)c2n1 (stereo not drawn) [Compound 122, 6-(2-Methyl-5-(((2-(trifluoromethyl)pyridin-3-yl)oxy)methyl)piperidin-1-yl)-1-(2,2,2-trifluoroethyl)-1H-pyrazolo[3,4-b]pyrazine] | < 10 µM
CC(=O)N1CCC(c2cc3ncc(N4CCCC(COc5cccnc5C(F)(F)F)C4)nc3n2C)CC1 (stereo not drawn) [Compound 73, 1-(4-(5-methyl-3-(3-(((2-(trifluoromethyl)pyridin-3-yl)oxy)methyl)piperidin-1-yl)-5H-pyrrolo[2,3-b]pyrazin-6-yl)piperidin-1-yl)ethan-1-one] | < 10 µM
O=C(c1cc2cccc(Cl)c2s1)N1CCCC(COc2ccccc2)C1 (stereo not drawn) [Compound 218] | 10 to 50 µM
CC1CCC(COc2cccnc2C(F)(F)F)CN1C(=O)c1ccc2cc[nH]c2c1 (stereo not drawn) [Compound 128, (1H-Indol-6-yl)(2-methyl-5-(((2-(trifluoromethyl)pyridin-3-yl)oxy)methyl)piperidin-1-yl)methanone] | 10 to 50 µM

SMILES | EC50
O=C(CCCc1ccccc1)N1CCC(Oc2ccc(C(F)(F)F)cn2)CC1 [Compound 386] | 10 to 50 µM
O=C(Cc1csc(-c2ccccc2)n1)N1CCC(Oc2ccnc(C(F)(F)F)c2)CC1 [Compound 399, 2-(2-Phenyl-1,3-thiazol-4-yl)-1-(4-{[2-(trifluoromethyl)pyridin-4-yl]oxy}piperidin-1-yl)ethan-1-one] | 10 to 50 µM
COc1ccc2c(c1)CCCC2CC(=O)N1CCCC(COc2ccccc2)C1 (stereo not drawn) [Compound 135] | 10 to 50 µM
CCCCC1(C(=O)N2CCCC(COc3ccccc3)C2)CCC1 (stereo not drawn) [Compound 177] | 10 to 50 µM
COc1ccc(OCC2CCN(c3cncc(N)n3)CC2)cc1 [Compound 431] | 50 to 100 µM
CO[C@@H]1CCN(c2cnc3cnn(CC(F)F)c3n2)C[C@@H]1COc1cccnc1C(F)(F)F [Compound 298a, 1-(2,2-Difluoroethyl)-6-((3R,4R)-4-methoxy-3-(((2-(trifluoromethyl)pyridin-3-yl)oxy)methyl)piperidin-1-yl)-1H-pyrazolo[3,4-b]pyrazine] | 50 to 100 µM
COCC1CCC(COc2cccnc2C(F)(F)F)CN1c1cnc2cnn(CC(F)F)c2n1 (stereo not drawn) [Compound 295, 1-(2,2-Difluoroethyl)-6-(2-(methoxymethyl)-5-(((2-(trifluoromethyl)pyridin-3-yl)oxy)methyl)piperidin-1-yl)-1H-pyrazolo[3,4-b]pyrazine] | < 10 µM
COc1ccc(OCC2CCN(c3cncc(C(=O)N4CCCC4)n3)CC2)cc1 [Compound 437] | 10 to 50 µM
CN(CC1CCCN(c2ncccc2C(F)(F)F)C1)c1cnc2cnn(CC(F)F)c2n1 (stereo not drawn) [Compound 289, 1-(2,2-Difluoroethyl)-N-methyl-N-((1-(3-(trifluoromethyl)pyridin-2-yl)piperidin-3-yl)methyl)-1H-pyrazolo[3,4-b]pyrazin-6-amine] | < 10 µM
O=C(N1CCC(COc2cccc(C(F)(F)F)n2)C1)C1(c2ccccc2)CCOCC1 (stereo not drawn) [Compound 6] | < 10 µM
c1ccc(OCC2CCN(c3cnc4ccccc4n3)CC2)cc1 [Compound 418, 2-[4-(Phenoxymethyl)piperidin-1-yl]quinoxaline] | 10 to 50 µM
O=C(C1C[C@@H]2C[C@@H](C1)CC(F)(F)C2)N1CCCC(COc2ccccc2)C1 (stereo partly drawn) [Compound 151] | 10 to 50 µM
FC(F)Cn1ncc2ncc(N3CCCC(F)(COc4cccnc4C(F)(F)F)C3)nc21 (stereo not drawn) [Compound 35, 3-({1-[1-(2,2-Difluoroethyl)-1H-pyrazolo[3,4-b]pyrazin-6-yl]-3-fluoropiperidin-3-yl}methoxy)-2-(trifluoromethyl)pyridine] | 10 to 50 µM
COc1ccc(OCC2CCN(c3nccc(N4CCCC(O)C4)n3)CC2)cc1 (stereo not drawn) [Compound 424] | < 10 µM
O=C(c1ccn2c1CSCC2)N1CCCC(COc2ccccc2)C1 (stereo not drawn) [Compound 220] | 50 to 100 µM
CN1CCC(COc2cccc(-c3cnc4ccccc4n3)c2)CC1 [Compound 428] | 10 to 50 µM
CCC(C)(C)C(=O)N1CCC(COc2cccc(C(F)(F)F)n2)CC1 [Compound 350] | 50 to 100 µM
O=C(c1ccc2cc[nH]c2c1)N1CCC(Oc2cncc(C(F)(F)F)c2)CC1 [Compound 307, (1H-Indol-6-yl)(4-((5-(trifluoromethyl)pyridin-3-yl)oxy)piperidin-1-yl)methanone] | 10 to 50 µM
C[C@@H]1C[C@H](COc2cccnc2C(F)(F)F)CN(c2cnc3cnn(CC(F)F)c3n2)C1 [Compound 47a, 1-(2,2-Difluoroethyl)-6-((3R,5S)-3-methyl-5-(((2-(trifluoromethyl)pyridin-3-yl)oxy)methyl)piperidin-1-yl)-1H-pyrazolo[3,4-b]pyrazine] | < 10 µM
